How the values were obtained:
[1] = tested on: atropine-resistant miosis; experiment: Atropine-resistant miosis after paracentesis; type: in vivo, albino rabbits
Experimental: (§1) The solutions of the following formulas were used.
(§2) Totally 28 male albino rabbits (4 rabbits×7 groups) with a body weight of about 2 kg werr used. They had been confirmed, before the experiment, to have mydriatic response to 1% atropine for at least 4 hours.
(§3) 50 μl each of 1% atropine solution was instilled into both eyes of the animals one hour before the 1st paracenthesis, in which approx. 0.2 ml/eye of aqueous humor (primary aqueous humor) was collected. Topical application of 50 μl each of the test drug solutions was conducted 30 min before the paracenthesis. Pupil diameter of each eye was measured with a slide caliper immediately before and 10 min after the paracenthesis. The 2nd paracenthesis was conducted 90 min after the 1st one, in which approx. 0.2 ml/eye of aqueous humor (secondary aqueous humor) was collected.

[2] = tested on: protein increase after paracentesis; experiment: Protein increase in aqueous humor after paracentesis; type: in vivo, albino rabbits; settings: content 0.5%
Experimental: as §1, §2, §3

cyclooxgenase = settings: cited from earlier work
[3] = tested on: carrageenin edema in rats; experiment: Carrageenin edema of the conjunctiva in rats; type: in vivo; settings: 4 hours after carrageenin; for Weight of Edema: mean ± SE for 10 eyes
Experimental: 1. Sodium 3-(4-bromobenzoyl)-2-aminophenyl-acetate (hereinafter referred to as Compound [I])
2. Sodium 3-(4-chlorobenzoyl)-2-aminophenyl-acetate (hereinafter referred to as Compound [II])
3. Sodium 3-benzoyl-2-aminophenylacetate (hereinafter referred to as Compound [III])
Using female Wister rates weighing 100 g in groups of 5 animals or 10 eyes, 0.05 ml of 1% carrageenin (dissolved in physiological saline at 50° C.) as a phlogogen was injected beneath the conjuctiva of both eyes to induce edema. Physiological saline, as a control, and test drugs were respectively instilled into both eyes 40 and 20 minutes before and immediately after the injection of carrageenin, in the amount of 2.5 μl per dose. Four hours after the phlogogen treatment, each animal was sacrificed by cervical dislocation and in accordance with the method of Maistrello et al.^(2), the scalp was peeled off toward the eyelid and the edematous portion together with the skin was removed along the lid margin and weighed.
^(2) Maistrello et al.: Quantitative Effect of Topically Applied Anti-inflammatory Agents on External Ocular Inflammation in Rats: Journal of Pharmaceutical Science, volume 62, pp. 1455-60(1973).

SMILES | Inhibitory activity on miosis after paracentesis ([1]; Compound [I] 0.0001-0.1%, indomethacin as high as 0.5%) | Inhibition (miosis) ([1]; content 0.5%) [%] | Miosis ([1]; content 0.5%, 10 min after paracentesis) [%] | Inhibition (protein increase) [2] [%] | Cyclooxygenase inhibitory activity (cyclooxgenase) | Degree of inhibition (carrageenin edema) ([3]; 0.5%) [%] | Weight of Edema ([3]; 0.5%) [mg] | Degree of inhibition (carrageenin edema) ([3]; 1.0%) [%] | Weight of Edema ([3]; 1.0%) [mg] | Degree of inhibition (carrageenin edema) ([3]; 5.0%) [%] | Weight of Edema ([3]; 5.0%) [mg]
COc1ccc2c(c1)c(CC(=O)O)c(C)n2C(=O)c1ccc(Cl)cc1 [Indomethacin, reference compound] | little effect was observed | 6.0 ± 21.4 | 16.4 ± 3.86 | 69.7 | strong cyclooxgenase inhibitory activity |  |  |  |  |  | 
Nc1c(CC(=O)[O-])cccc1C(=O)c1ccc(Cl)cc1.[Na+] [Compound [II], Sodium 3-(4-chlorobenzoyl)-2-aminophenyl-acetate] |  |  |  |  |  | 36.9 | 37.52 ± 2.423 | 34.4 | 39.02 ± 3.057 |  | 
Nc1c(CC(=O)[O-])cccc1C(=O)c1ccccc1.[Na+] [Compound [III], Sodium 3-benzoyl-2-aminophenylacetate] |  |  |  |  |  |  |  | 41.4 | 30.98 ± 3.194 | 37.9 | 32.80 ± 2.409

From US4910225A, “Locally administrable therapeutic composition for inflammatory disease” (Senju Pharmaceutical Co., Ltd., priority 1988, dated 1990)
